The test system of this assay is IFNα-induced pSTAT5 (pY694) in CD3 positive cells of human whole blood. Briefly: IFNα-Induced STAT Phosphorylation in Human Whole Blood. The class given is cell-based. The note with it: Homo sapiens, 1 h compound incubation, 1000 U/mL recombinant human IFNα A/D for 15 min, pSTAT5 in CD3 positive population, read-out: Human WB IFNα-Induced Stat Phosph. (IC50). The method in brief: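 Read-out is median fluorescence intensity of pSTAT5 (pY694) in the CD3-positive gate, by flow cytometry after fix/lyse and permeabilization. Before that, whole human blood anticoagulated with EDTA or ACD-A received compound for an hour and 1000 U/mL IFNα A/D for 15 min.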

Structures are written as SMILES.

The term IC50 denotes the concentration that gives 50% inhibition.

As for `[2H]C([2H])([2H])NC(=O)c1nnc(NC(=O)C2CC2)cc1Nc1cccc(-c2ncc(CNC(C)=O)s2)c1OC` [Example 261], the IC50 was 680 nM.

Regarding `[2H]C([2H])([2H])NC(=O)c1nnc(NC(=O)C2CC2)cc1Nc1cccc(-c2ncc(C(=O)NCC(C)(C)CN(C)C)s2)c1OC` [Example 339], the IC50 stood at 40 nM.

Turning to `[2H]C([2H])([2H])NC(=O)c1nnc(NC(=O)C2CC2)cc1Nc1cc(F)cc(-c2cc(C(=O)N3CCC(CCO)CC3)n(C)n2)c1OC` [Example 509], the IC50 came out at 170 nM.

As for `[2H]C([2H])([2H])NC(=O)c1nnc(NC(=O)C2CC2)cc1Nc1cccc(-c2nc(CN3CCN(C(C)=O)CC3=O)no2)c1OC` [Example 140], the IC50 was found to be 330 nM.

In the case of `[2H]C([2H])([2H])NC(=O)c1nnc(NC(=O)C2CC2)cc1Nc1cc(F)cc(-c2cc(C(=O)N3CCN(C(C)C)CC3)n(C)n2)c1OC` [Example 518], the IC50 was found to be 150 nM.

Consider `[2H]C([2H])([2H])NC(=O)c1nnc(Nc2ccc(OC)nn2)cc1Nc1cccc(-c2ncc(CNC(=O)OC)s2)c1OC` [Example 391], for which the IC50 came out at 820 nM.

With `[2H]C([2H])([2H])NC(=O)c1cnc(NC(=O)C2CC2)cc1Nc1cccc(-c2cnn(CCN)n2)c1OC` [Example 442], the IC50 is 80 nM.

With `[2H]C([2H])([2H])NC(=O)c1nnc(NC(=O)C2CC2)cc1Nc1cc(F)cc(-c2cc(C(=O)N3CCc4ccccc4C3)n(C)n2)c1OC` [Example 512], the IC50 worked out at 2560 nM.

In the case of `[2H]C([2H])([2H])NC(=O)c1nnc(NC(=O)C2CC2)cc1Nc1cccc(-c2cc(C(=O)N3CCN(S(C)(=O)=O)CC3)n(C)n2)c1OC` [Example 502], the IC50 is 150 nM.

In the case of `CCN(Cc1nc(-c2cccc(Nc3cc(NC(=O)C4CC4)nnc3C(N)=O)c2OC)no1)S(C)(=O)=O` [Example 59], the IC50 is 13 nM.

On to `[2H]C([2H])([2H])NC(=O)c1nnc(NC(=O)C2CC2)cc1Nc1cc(F)cc(-c2cc(C(=O)N(C)C)n(C)n2)c1OC` [Example 495], for which the IC50 was 60 nM.

As for `COc1c(Nc2cc(NC(=O)C3CC3)nnc2C(N)=O)cccc1-c1ncc(C(=O)N2CCCC2)s1` [Example 407], the IC50 came to 160 nM.

For `[2H]C([2H])([2H])NC(=O)c1nnc(NC(=O)C2CC2)cc1Nc1cccc(-c2nc(CN3CCN(C(=O)CC#N)CC3)no2)c1OC` [Example 134], the IC50 was found to be 110 nM.

Turning to `COc1c(Nc2cc(NC(=O)C3CC3)nnc2C(N)=O)cccc1-c1noc(CNS(=O)(=O)c2ccccc2)n1` [Example 13], the IC50 was 24 nM.

Consider `[2H]C([2H])([2H])NC(=O)c1nnc(NC(=O)C2CC2)cc1Nc1cc(F)cc(-c2cc(C(=O)N3CC4CN(C)CC4C3)n(C)n2)c1OC` (stereo not shown) [Example 496], for which the half-maximal inhibitory concentration (IC50) worked out at 250 nM.

In the case of `[2H]C([2H])([2H])NC(=O)c1nnc(NC(=O)C2CC2)cc1Nc1cccc(-c2ncc(CC(=O)NCCC3CCCN3C)o2)c1OC` (stereo not shown) [Example 412], the 50% inhibitory concentration (IC50) stood at 4620 nM.

Turning to `COc1c(Nc2cc(NC(=O)C3CC3)nnc2C(N)=O)cccc1-c1noc(CC(=O)N2CCOCC2)n1` [Example 36], the IC50 turned out to be 30 nM.

As to `[2H]C([2H])([2H])NC(=O)c1nnc(NC(=O)C2CC2)cc1Nc1cccc(-c2cc(C(=O)N3CCN(C(C)C)CC3)n(C)n2)c1OC` [Example 531], the IC50 is 60 nM.

With `[2H]C([2H])([2H])NC(=O)c1nnc(Nc2ccc(OC)nn2)cc1Nc1cccc(-c2nc(C(=O)N(C)C)cs2)c1OC` [Example 379], the IC50 is 560 nM.

Consider `[2H]C([2H])([2H])NC(=O)c1nnc(NC(=O)C2CC2)cc1Nc1cccc(-c2cnn(CCNC(=O)OC(C)(C)C)n2)c1OC` [Example 431], for which the IC50 is over 10000 nM.

Turning to `[2H]C([2H])([2H])NC(=O)c1nnc(Nc2cnn(C)n2)cc1Nc1cccc(-c2ncc(CO)s2)c1OC` [Example 386], the IC50 came out at 490 nM.

In the case of `COc1c(Nc2cc(NC(=O)C3CC3)nnc2C(N)=O)cccc1-c1ncc(C(=O)N2CCOCC2)s1` [Example 245], the IC50 turned out to be 110 nM.

Regarding `[2H]C([2H])([2H])NC(=O)c1nnc(NC(=O)C2CC2)cc1Nc1cccc(-c2nc(CN3C[C@@H](C)O[C@@H](C)C3)no2)c1OC` [Example 158], the IC50 turned out to be 400 nM.

On to `[2H]C([2H])([2H])NC(=O)c1nnc(NC(=O)C2CC2)cc1Nc1cccc(-c2cc(C(=O)NCC34CCN(CC3)CC4)n(C)n2)c1OC` [Example 504], for which the IC50 was over 10000 nM.

For `[2H]C([2H])([2H])NC(=O)c1nnc(NC(=O)C2CC2)cc1Nc1cccc(-c2noc(CN)n2)c1OC` [Example 6, 4-((3-(5-(aminomethyl)-1,2,4-oxadiazol-3-yl)-2-methoxyphenyl)amino)-6-(cyclopropanecarboxamido)-N-trideuteromethylpyridazine-3-carboxamide], the IC50 is 110 nM.

With `[2H]C([2H])([2H])NC(=O)c1nnc(NC(=O)C2CC2)cc1Nc1cccc(-c2nc(CN(C)C(=O)COC)no2)c1OC` [Example 170], the IC50 was 570 nM.

Regarding `[2H]C([2H])([2H])NC(=O)c1nnc(NC(=O)C2CC2)cc1Nc1cccc(-c2ncc(C(=O)NCCN3CCOCC3)s2)c1OC` [Example 321], the IC50 turned out to be 30 nM.

Regarding `[2H]C([2H])([2H])NC(=O)c1nnc(NC(=O)C2CC2)cc1Nc1cccc(-c2cc(C(=O)N(C)C)n(C)n2)c1OC` [Example 483], the IC50 came to 60 nM.

`[2H]C([2H])([2H])NC(=O)c1nnc(NC(=O)C2CC2)cc1Nc1cccc(-c2ncc(C(=O)N(C)C(C)C)s2)c1OC` [Example 292]: the IC50 came out at 160 nM.

Turning to `[2H]C([2H])([2H])NC(=O)c1nnc(NC(=O)C2CC2)cc1Nc1cccc(-c2cc(C(=O)N3CCN(C(=O)OC)CC3)n(C)n2)c1OC` [Example 494], the IC50 was 250 nM.

In the case of `[2H]C([2H])([2H])NC(=O)c1nnc(NC(=O)C2CC2)cc1Nc1cccc(-n2cc(CO)nn2)c1OC` [Example 3], the IC50 was 980 nM.

With `[2H]C([2H])([2H])NC(=O)c1nnc(NC(=O)C2CC2)cc1Nc1cccc(-c2cnn(CCNC(=O)C3(C#N)CC3)n2)c1OC` [Example 437], the IC50 is 2410 nM.

For `[2H]C([2H])([2H])NC(=O)c1nnc(NC(=O)C2CC2)cc1Nc1cccc(-c2cc(C(=O)N3CCC(OC)C3)n(C)n2)c1OC` (stereo not shown) [Example 522], the IC50 was determined as 190 nM.

Turning to `[2H]C([2H])([2H])NC(=O)c1cnc(NC(=O)C2CC2)cc1Nc1cccc(-c2noc(CN3CCCS3(=O)=O)n2)c1OC` [Example 97], the IC50 turned out to be 30 nM.

In the case of `[2H]C([2H])([2H])NC(=O)c1nnc(NC(=O)C2CC2)cc1Nc1cccc(-c2noc(CN3CCN(C(=O)OC(C)(C)C)CC3)n2)c1OC` [Example 34], the IC50 was 1010 nM.

As to `[2H]C([2H])([2H])NC(=O)c1nnc(NC(=O)C2CC2)cc1Nc1cc(F)cc(-c2cc(C(=O)N3CCCN(C)CC3)n(C)n2)c1OC` [Example 517], the IC50 came out at 350 nM.

In the case of `[2H]C([2H])([2H])NC(=O)c1cnc(NC(=O)C2CC2)cc1Nc1cccc(-c2noc(COC)n2)c1OC` [Example 93], the IC50 was 50 nM.

Take `[2H]C([2H])([2H])NC(=O)c1nnc(NC(=O)C2CC2)cc1Nc1cccc(-c2noc(CN3CCOC3=O)n2)c1OC` [Example 77]: the IC50 is 40 nM.

Turning to `[2H]C([2H])([2H])NC(=O)c1nnc(NC(=O)C2CC2)cc1Nc1cccc(-c2ncc(C(=O)NC3CCCN(C)C3)s2)c1OC` (stereo not shown) [Example 337], the IC50 is 70 nM.

For `[2H]C([2H])([2H])NC(=O)c1nnc(NC(=O)C2CC2)cc1Nc1cccc(-c2nc(CNC(=O)CN3CCNCC3)no2)c1OC` [Example 162], the IC50 amounted to 2730 nM.

The record behind these values is US12240840B2, “Amide-substituted heterocyclic compounds for the treatment of conditions related to the modulation of IL-12, IL-23 and/or IFN-alpha” (BRISTOL-MYERS SQUIBB COMPANY, priority 2018, dated 2025).
